Experiment [1] concerns SKBR-3 breast cancer cell line. As to the kind of experiment: MTT assay, SKBR-3. The class given is cell-based. The conditions noted are these: Homo sapiens, SK-BR-3; SKBR-3, 24 h treatment (21 h + 3 h MTT); read-out: IC50, cell viability (MTT). The method, then: (§1) The human breast cancer cell lines SKBR-3 and paclitaxel-resistant SKBR-3 were kindly provided by Marc St. George (University of Alberta, Canada). Both cell lines were grown in RPMI 1640 medium (GIBCO) with 10% fetal calf serum and 1 mM L-glutamine 1% penicillin/streptomycin mixture under a humidified atmosphere containing 5% CO2. Addition of 16.65 nM paclitaxel to the paclitaxel-resistant cell line is mandatory to keep the acquired resistance at the same efficiency level.
(§2) The human breast cancer cell lines SKBR-3 and paclitaxel-resistant SKBR-3 (1 × 10^4 cells per well) were seeded into 96-well plates. […] After 21 h incubation, 50 μL of MTT (1 mg/mL) solution was added and the plates were incubated for an additional 3 h. After centrifugation, supernatant was removed from each well and […] of dimethyl sulfoxide (DMSO) was added to dissolve the insoluble formazan crystals. The absorbance was measured at 570 nm and 690 nm subtracted as a background, using microplate reader. The data was plotted using GraphPad Prism 5.0 software. IC50 and statistical analysis (t-test) were calculated using the same software.
(In general: Formazan colour is commonly taken as a measure of viable cells.)

Experiment [2] concerns paclitaxel-resistant SKBR-3 breast cancer cell line. Description: MTT assay, paclitaxel-resistant SKBR-3. The class given is cell-based. The conditions noted are these: Homo sapiens, SK-BR-3, paclitaxel-resistant SKBR-3, 24 h treatment (21 h + 3 h MTT); read-out: IC50, cell viability (MTT). Here is the method:
as §1, §2

For a further experiment, the system named is tubulin. As to the kind of experiment: Microtubule assembly assay (turbidity). The class given is biochemical. Conditions: 10 μM compound, tubulin 3 mg/mL, 37°C, turbidity at 340 nm. Here is the method: The turbidity was recorded on 96-half area well plates by microplate reader at 340 nm as an indicator for microtubules formation. […] Tubulin at a concentration of 3mg/mL in tubulin buffer (80 mM PIPES pH 6.9, 2 mM MgCl2, 0.5 mM EGTA, 1 mM GTP, 10.2% glycerol) was kept at 4°C before being added to the wells and shifting to 37°C. The absorbance was measured using the kinetic absorbance mode. DMSO solutions of paclitaxel and colchicine (10 μM) were used as controls.

Experiment [3] concerns the target Porcine brain tubulin (unfractionated). Description: Tryptophan fluorescence quenching binding assay, porcine brain tubulin. The conditions noted are these: dissociation constant, calculated.
A further experiment deals with T1, βI,βI-tubulin (Homo sapiens, UniProt P07437).
T1 construct: made in house; host or cells: E. coli BL21 (DE3)
Description: Tryptophan fluorescence quenching binding assay, recombinant βI,βI-tubulin homodimer. The conditions noted are these: dissociation constant, calculated. Here is the method:
(§3) The protein sequence of human αI-tubulin is given by UniProtKB accession number Q71U36 (gene name TUBA1A), the protein sequence of human βI-tubulin is given by UniProtKB accession number P07437 (gene name TUBB) and that of human βIII-tubulin is given by UniProtKB accession number Q13509 (gene name TUBB3). The cloning work for αI- and βI-tubulin was performed and reported previously. For the βIII human tubulin protein, the sequence was converted into DNA sequences with codons optimized for production in Escherichia coli, and for purification purposes, a His-tag was added at the N-terminus. The βIII-tubulin gene was inserted into a pET15b vector between the XhoI and NdeI restriction sites. The correct sequence, insertion, and orientation of the tubulin constructs were verified by DNA sequencing. Recombinant proteins were expressed in E. coli BL21 (DE3) host cells in LB medium supplemented with 100 μg/mL ampicillin. The cultures were grown at 37°C until an OD600 = 0.8 was reached, and the cells were induced with 1.0 mM isopropyl b-D-1-thiogalactopyranoside (IPTG) for 18 h at 25°C. After induction, the cells were harvested by centrifugation (6000 × g for 20 min at 4°C in SLC-6000 evolution sorvall rotor). The three variants of the tubulin protein were isolated from the inclusion bodies. […]

The target of another experiment is T2, αI,βI-tubulin (Homo sapiens, UniProt P07437+Q71U36).
T2 construct: made in house; host or cells: E. coli BL21 (DE3)
Description: Tryptophan fluorescence quenching binding assay, recombinant αI,βI-tubulin heterodimer. The conditions noted are these: dissociation constant, calculated. The method, then:
as §3

The target in a further experiment is T3, αI,βIII-tubulin (Homo sapiens, UniProt Q13509+Q71U36).
T3 construct: His-tag (N); made in house; host or cells: E. coli BL21 (DE3)
As to the kind of experiment: Tryptophan fluorescence quenching binding assay, recombinant αI,βIII-tubulin heterodimer. Conditions: dissociation constant, calculated. The method, then:
as §3

T1 sequence (P07437 whole entry): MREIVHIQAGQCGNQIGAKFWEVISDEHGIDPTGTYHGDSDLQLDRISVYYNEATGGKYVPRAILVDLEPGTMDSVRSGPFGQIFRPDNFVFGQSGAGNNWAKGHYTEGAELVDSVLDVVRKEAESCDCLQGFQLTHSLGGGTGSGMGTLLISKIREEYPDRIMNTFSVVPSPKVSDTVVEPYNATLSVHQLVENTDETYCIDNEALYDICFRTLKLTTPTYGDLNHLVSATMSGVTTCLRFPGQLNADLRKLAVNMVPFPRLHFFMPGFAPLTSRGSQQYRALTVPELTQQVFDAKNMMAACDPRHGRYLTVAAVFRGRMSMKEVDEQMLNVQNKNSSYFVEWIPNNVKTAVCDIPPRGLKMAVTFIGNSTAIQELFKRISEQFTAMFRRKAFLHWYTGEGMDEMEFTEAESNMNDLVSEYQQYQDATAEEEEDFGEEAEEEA
T3 sequence (Q71U36 whole entry): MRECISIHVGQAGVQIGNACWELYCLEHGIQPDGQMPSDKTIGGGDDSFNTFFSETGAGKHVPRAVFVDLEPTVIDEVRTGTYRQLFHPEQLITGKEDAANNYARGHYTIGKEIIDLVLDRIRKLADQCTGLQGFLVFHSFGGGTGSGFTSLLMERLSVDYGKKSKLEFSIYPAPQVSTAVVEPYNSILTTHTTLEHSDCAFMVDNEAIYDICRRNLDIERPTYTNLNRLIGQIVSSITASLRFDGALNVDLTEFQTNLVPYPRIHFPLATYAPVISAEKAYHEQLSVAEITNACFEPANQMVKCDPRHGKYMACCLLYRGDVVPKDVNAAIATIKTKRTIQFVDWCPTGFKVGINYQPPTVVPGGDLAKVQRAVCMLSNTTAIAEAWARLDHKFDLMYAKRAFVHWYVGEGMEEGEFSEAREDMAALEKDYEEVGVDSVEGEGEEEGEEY
T3 sequence (Q13509 whole entry): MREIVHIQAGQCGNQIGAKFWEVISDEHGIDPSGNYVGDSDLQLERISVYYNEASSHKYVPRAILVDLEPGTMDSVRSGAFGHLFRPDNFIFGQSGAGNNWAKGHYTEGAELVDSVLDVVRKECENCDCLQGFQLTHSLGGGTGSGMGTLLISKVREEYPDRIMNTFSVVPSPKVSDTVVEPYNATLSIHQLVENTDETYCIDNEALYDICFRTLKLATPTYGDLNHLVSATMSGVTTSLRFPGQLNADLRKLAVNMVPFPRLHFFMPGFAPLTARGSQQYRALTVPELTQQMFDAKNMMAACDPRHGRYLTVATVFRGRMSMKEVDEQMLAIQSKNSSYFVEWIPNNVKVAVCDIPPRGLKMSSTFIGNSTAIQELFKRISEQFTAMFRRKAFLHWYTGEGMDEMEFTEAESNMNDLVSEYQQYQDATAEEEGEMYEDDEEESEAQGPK
T2 sequence (Q71U36 whole entry): as the sequence (Q71U36 whole entry) above
T2 sequence (P07437 whole entry): as the sequence (P07437 whole entry) above

Consider `COc1ccc2c(c1OC)C(=O)O/C2=C\c1ccc2c(c1)OCO2` [Compound 8, (Z)-3-(benzo[d][1,3]dioxol-5-ylmethylene)-6,7-dimethoxyisobenzofuran-1(3H)-one], for which the IC50 (usually the midpoint of a concentration-inhibition curve) in experiment [1] was around 40 µM; in experiment [2], around 64 µM. For the same compound, the “Effect on MT polymerization” value in the experiment with tubulin is listed as “destabilize MT”.
As for `COc1ccc2c(c1OC)C(=O)O[C@@H]2[C@H]1c2c(cc3c(c2OC)OCO3)CCN1C` [Noscapine], the Kd (usually the free concentration of one partner at which half of the binding sites on the other are occupied at equilibrium, for simple one-to-one binding) in experiment [3] is 265 µM; at βI,βI-tubulin, 426 µM; on αI,βI-tubulin, 293 µM; on αI,βIII-tubulin, 289 µM. In addition, the 50% inhibitory concentration (IC50) in experiment [1] and in experiment [2] was around 100 µM throughout. Also, the “Effect on MT polymerization” value in the experiment with tubulin is reported as “stabilize MT”.

(Values after publication PMC5130025, “A new antiproliferative noscapine analogue: chemical synthesis and biological evaluation” (Oncotarget, 2016).)
